{"source": "patent US9474757B2", "about": "“Methods for treating cancer using TOR kinase inhibitor combination therapy” (Signal Pharmaceuticals, LLC, priority 2013, dated 2016)", "key": {"[1]": {"system": "SUDHL4 (DLBCL) xenografts", "test": "CIVO arrayed microinjection, SUDHL4 xenograft, cleaved caspase 3", "assay_type": "in vivo, Nu/Nu mice", "conditions": "systemic Compound A 30 mpk QD×8 -/+ dexamethasone 5 mpk, local Compound 2 13 μg in 4 μL", "experimental": "(§1) Anesthetized Nu/Nu mice harboring xenografted tumors were injected with multiple individual compounds or compound combinations, simultaneously, each into a distinct location of the tumor. Precise, controlled delivery of the compounds was evaluated for spatially defined and cellular changes around sites of tumor microinjection across xenograft models of DLBCL. Tumors were resected and injection quality was assessed by IVIS imaging of co-injected near-infrared tracking dye. Sections from representative regions down the z-axis of the tumor were prepared for staining with biomarkers of pathway inhibition and tumor response. Samples were then batch scanned in a Caliper Pannoramic slide scanner, resulting in high resolution images compatible with single cell analysis and subsequent data quantification via Presage's CIVO™ analyzer custom image analysis platform (for technology description, see R. Klinghoffer et al, AACR, 2014 and Presagebio.com).\nIn order to evaluate combination effects of Compound A with other compounds in the DLBCL model SUDHL4, vehicle or Compound A (30 mpk QD×8)−/+ dexamethasone (5 mpk QD×8) was given systemically. […] Apoptosis was evaluated by measurement of the apoptosis marker, cleaved caspase 3 (CC3), which was plotted as a function of distance from the injection site."}, "OCI-Ly10 xenograft": {"system": "OCI-Ly10 xenograft", "test": "OCI-Ly10 DLBCL xenograft model", "assay_type": "in vivo, SCID mice", "text": "OCI-Ly10 cells are derived from a diffuse-large B-cell lymphoma, a type of non-Hodgkins lymphoma. Female SCID mice (Fox Chase SCID®, CB 17/Icr-Prkdcscid, Charles River), characterized by severe combined T and B cell immunodeficiency, were 10 weeks old, with body weights ranging from 15.4 to 24.2 g, on Day 1 of this study. In brief, female CB.17 SCID mice were inoculated with 5×10^6 OCI-Ly10 cells subcutaneously, and tumors were allowed to grow to approximately 100-150 mm^3 before stratification into treatment groups, so as to yield groups with comparably sized tumors prior to treatment. In addition to the efficacy treatment groups, some mice were stratified into short-term treatment groups and their tumors were collected 4 hours post final dosing in groups that received saline, 30 mg/kg or 10 mg/kg Compound A, or 3 mg/kg Compound 1 once daily for seven days, starting on day 27. Frozen, and fixed paraffin-embedded, samples were analyzed. In the efficacy arm of the study, dosing began on Day 1 (D1) in 12 groups of mice (n=10/group) with established subcutaneous tumors (mean volumes, 120-129 mm^3). Compound A (at two dose levels) and Compound 1 (at one dose level) were each administered once daily for 28 days (qd×28). Control mice received the vehicle, 5% DMSO/15% Solutol® HS15/80% PBS, p.o. b.i.d.×28. On D29 a 21-day dosing extension, from day 33 to day 53, in the control and five test groups was implemented, resulting in b.i.d.×28/4/21 or qd×28/4/21 schedules for these groups.\nTumors were calipered twice weekly, and each mouse in the efficacy study was euthanized when its tumor reached the 1000 mm^3 volume endpoint, or on day 61, whichever came first. Efficacy was determined from tumor growth delay (TGD), defined as the increase in the median time-to-endpoint (TTE) in drug-treated (T) versus vehicle-treated (C) mice, and from the significance of survival extension."}, "OCILy10 xenografts": {"system": "OCILy10 xenografts", "test": "CIVO arrayed microinjection, OCILy10 xenograft, cleaved caspase 3", "assay_type": "in vivo, Nu/Nu mice", "experimental": "as §1\nIn order to evaluate combination treatment with Compound 1, Compound A and Compound AA, mice with OCILy10 xenografts were treated systemically with Compound A 30 mpk QD×4 followed by Compound A 30 mpk and Compound 110 mpk QD×3. At 3 hours after the 7th systemic dose, Compound AA (15.4 μg in 4 μL injected) was injected locally at three sites. […]"}, "WSU-DLCL2 xenograft": {"system": "WSU-DLCL2 xenograft", "test": "DLBCL xenograft model (WSU-DLCL2)", "assay_type": "in vivo, SCID mice", "conditions": "combination study", "experimental": "Severe combined immunodeficiency (SCID) mice were implanted with human DLBCL cell line (WSU-DLCL2) into the flank. Treatment of compounds started between Day 11 and Day 14 after cell inoculation. Randomized groups of mice (n=9 to 10/group) were treated with the single agents (Compound 1, Compound A or Compound AA) or the combination of Compound 1/Compound A, Compound A/Compound AA, or Compound 1/Compound AA. Compounds were administered orally on a once daily (Compound 1 and Compound A) or twice daily […] schedule for 21 days. The positive control consisted of CHOP therapy (combination of cyclophosphamide, doxorubicin, vincristine and prednisone). Compound 1 and Compound A were formulated in CMC-Tween (carboxymethylcellulose/Tween 80/deionized water). Compound AA was suspended in DSP (dimethylsulphoxide/solutol/phosphate buffered saline).\nInitial studies were conducted in order to determine the antitumor activity of Compound 1 and to identify a dose level for the combination studies. In the WSU-DLCL2 xenograft model, Compound 1 inhibited tumor growth in a dose-dependent fashion. […] In a subsequent combination study, Compound 1 was dosed at 10 mg/kg, once daily (QD). Compound A and Compound AA were dosed at 30 mg/kg (QD) and 50 mg/kg (BID), respectively."}, "[2]": {"conditions": "28-day schedule: Compound A 30 mg/kg qd×28, alone or with Compound 1"}, "[3]": {"conditions": "extended schedule qd×28/4/21: Compound A 10 mg/kg, Compound 1 3 mg/kg, alone or combined"}}}
{"smiles": "Cc1nc2cccc(N)c2c(=O)n1C1CCC(=O)NC1=O", "note": "(centres unmarked) [Compound A, 3-(5-Amino-2-methyl-4-oxoquinazolin-3(4H)-yl)-piperidine-2,6-dione]", "values": [{"measurement": "apoptosis (cleaved caspase 3) induced by local treatment with Compound 2", "setting": "[1]", "value": "enhanced induction of apoptosis"}, {"measurement": "apoptosis (cleaved caspase 3) induced by local treatment with Compound 2", "setting": "[1]; listed as compound A", "value": "enhanced cell death"}, {"measurement": "tumor growth delay (TGD), %", "setting": "OCI-Ly10 xenograft; 28-day schedule: Compound A 30 mg/kg qd×28", "value": 88, "unit": "%"}, {"measurement": "PRs", "setting": "OCI-Ly10 xenograft; [2]", "value": "two"}, {"measurement": "survivors (n=10/group)", "setting": "OCI-Ly10 xenograft; [2]", "value": "seven"}, {"measurement": "tumor growth delay (TGD)", "setting": "OCI-Ly10 xenograft; [2]", "value": 28.6, "unit": "days"}, {"measurement": "tumor growth delay (TGD), %", "setting": "OCI-Ly10 xenograft; extended schedule qd×28/4/21: Compound A 10 mg/kg, Compound 1 3 mg/kg", "value": 27, "unit": "%"}, {"measurement": "PRs / regressions", "setting": "OCI-Ly10 xenograft; [3]", "value": "no regressions"}, {"measurement": "survivors (n=10/group)", "setting": "OCI-Ly10 xenograft; [3]", "value": "three"}, {"measurement": "tumor growth delay (TGD)", "setting": "OCI-Ly10 xenograft; [3]", "value": 8.9, "unit": "days"}, {"measurement": "cell death (CC3 positive sites) at Compound AA injection sites", "setting": "OCILy10 xenografts; systemic Compound A 30 mpk, with or without Compound 1 10 mpk, local Compound AA", "value": "did not lead to cell death"}, {"measurement": "CC3 positive sites", "setting": "OCILy10 xenografts; systemic dose, local injection of Compound AA 15.4 μg in 4 μL, total sites 18 and 26", "value": 0}, {"measurement": "decrease in tumor volume (TVR) vs vehicle", "setting": "WSU-DLCL2 xenograft; Day 34, Compound 1 10 mg/kg QD, Compound A 30 mg/kg QD, Compound AA 50 mg/kg BID, oral", "value": 30, "unit": "%"}, {"measurement": "body weight loss", "setting": "WSU-DLCL2 xenograft; single agents or in combination", "value": "No significant body weight loss"}]}
